These results are taken from patent publication US8518928B2, “Therapeutic compounds” (Rutgers, The State University of New Jersey, priority 2006, dated 2013).

The test system of series [1] is SK-N-AS. To be noted: human neuroblastoma cell line SK-N-AS; read-out: cytotoxicity IC50; cited from earlier work.
The subject of series [2] is MiaPaCa. The settings on record: human pancreatic carcinoma MiaPaCa; read-out: cytotoxicity IC50; cited from earlier work.
Series [3] deals with LAN1. The settings on record: human neuroblastoma cell line LAN1; read-out: cytotoxicity IC50; cited from earlier work.
Series [4] relates to bone marrow CD34-positive cells. To be noted: cited from earlier work.
In series [5] the test system is WAC2. The settings on record: human neuroblastoma cell line WAC2; read-out: cytotoxicity IC50; cited from earlier work.
For series [6], the system named is LAN5. The settings on record: human neuroblastoma cell line LAN5; read-out: cytotoxicity IC50; cited from earlier work.

Where a name gives a salt, the structure may show the parent alone.

Turning to `CC(C)C1NC(=O)c2coc(n2)-c2coc(n2)-c2coc(n2)C(CCCCN)NC(=O)c2coc(n2)-c2coc(n2)-c2coc1n2` (stereo not shown) (as salt: TFA) [Compound 15, Cyclic Lysine-Valine Amine TFA Salt], the melting point (usually the temperature, or range, at which the solid turns liquid) was 297 to 300 °C.
Turning to `Cc1oc2nc1-c1nc(co1)-c1nc(co1)-c1nc(co1)-c1nc(co1)-c1nc(co1)C1=NC(CS1)c1nc-2c(C)o1` (stereo not shown) [Telomestatin], the IC50 – broadly, the midpoint of a concentration-inhibition curve – is 800 nM in series [1]; 500 nM in series [2]; 4000 nM in series [3]; 3200 nM in series [5]; 2500 nM in series [6]. The “effect on BFU-E and CFU-GM” value in series [4] is given as “much lesser effect”.
